Reference: patent US6811766B1, “Ultrasound imaging with contrast agent targeted to microvasculature and a vasodilator drug” (Amersham Health AS, priority 1997, dated 2004)

Key:
[1] = test system: healthy myocardial tissue; details: adenosine vasodilatation; cited from earlier work
[2] = Heart rate under continuous dobutamine infusion; format: in vivo; details: dog, continuous dobutamine infusion 15 μg/kg/min, stable effect; normal 100 beats per minute
Method: Example 1 was repeated except that a continuous infusion of dobutamine at a rate of 15 μg/kg/min was administered in place of adenosine. After a stable dobutamine effect consisting of an increase in heart rate from the normal 100 beats per minute to 150 beats per minute was obtained, the microbubble dispersion and the emulsion were intravenously injected from two syringes as a simultaneous bolus. Infusion of dobutamine was continued for another 2 minutes after the contrast agent injection.

Compound	increase of coronary blood flow in healthy myocardial tissue [1]	heart rate [2]
Nc1ncnc2c1ncn2[C@@H]1O[C@H](CO)[C@@H](O)[C@H]1O [adenosine]	more than 400%	
CC(CCc1ccc(O)cc1)NCCc1ccc(O)c(O)c1 (centres unmarked) [dobutamine]		150 beats per minute
